# Source: US12558327B2, “Methods and compositions for treating sleep apnea” (The Brigham and Women's Hospital, Inc., priority 2019, dated 2026)
# “And” between values parts separate entries of the source, which are not always exact repeats. Equal values may be shown once. “Also recorded” adds a separate entry of the source. Read-outs that look alike come from different tables or passages of the source.
# Assays:
# patients with OSA = conditions: drug taken alone, cited from earlier work
# OSA patients [1] = conditions: for NREM (atomoxetine) and REM (oxybutynin) specific AHI / effect on ventilation during sleep / oxygen saturation / oxygen levels compared to placebo: each drug administered alone; for OSA severity (apnea hypopnea index, AHI): nine moderate-to-severe OSA patients, REM and NREM sleep
# Description: In a preliminary investigation, nine patients equipped with a pneumotachograph attached to an oronasal mask to measure ventilation and an esophageal catheter to estimate the arousal threshold, performed a sleep study on each of these 4 conditions: placebo, atomoxetine alone, oxybutynin alone and ato-oxy.
# patients with mild OSA = conditions: 15 patients with mild OSA; cited from earlier work
# [2] = test system: OSA patients; normal controls; conditions: cited from earlier work
# [3] = in vivo; cited from earlier work
# OSA patients [4] = experiment: Atomoxetine plus pimavanserin sleep study in 5 OSA patients (Example 4); format: in vivo, human; conditions: inferred from combination effect and atomoxetine-alone reduction
# Description: We administered the recently-approved selective 5-HT2A inverse agonist pimavanserin 34 mg to block the EEG arousal response to CO2 in association with atomoxetine 80 mg and measured the effect of this combination on OSA severity, arousal threshold and collapsibility in 5 patients. These doses were chosen as they are the usual effective doses for attention-deficit disorder and delusion-hallucinations in patients with Parkinson's disease, respectively, based on prescribing information. Patients were also instrumented with an oronasal mask, and in 4/5 patients, esophageal catheter and genioglossus intramuscular electrodes. […] The effect on the arousal threshold is noteworthy, because pimavenserin was administered together with atomoxetine, a wake-promoting drug that, as described above, caused a reduction in arousal threshold by ˜18% compared to placebo in OSA patients in a previous trial. This means that pimavanserin could actually increase the respiratory arousal threshold by ˜50%.
# OSA patients [5] = conditions: cited from earlier work
# OSA subjects = experiment: Tiagabine in 14 OSA subjects; format: in vivo, human
# Description: As described herein, drugs that increase sleep depth (and slow wave sleep (SWS) in particular) such as tiagabine or gabapentin could help the resolution of OSA. […] The pharmacological increase in slow wave sleep (SWS) could be an ideal mechanism for raising the arousal threshold to treat OSA, particularly since SWS seems to be a “protective state” against OSA. […] The reason for improvement likely relates to changes in the non-anatomical factors that contribute to OSA during SWS such as reduced arousability, thereby enabling a higher activation of upper airway dilator muscles. […] Thus, as described herein, drugs such as gabapentin that cause 20-60% increase of SWS^20,21, are ideal candidates for the treatment of OSA in association with atomoxetine.
# OSA patients [6] = conditions: cited from earlier work; remark: listed apart in the source
# [7] = test system: subjects with and without OSA; conditions: cited from earlier work
# OSA patients [8] = conditions: zopiclone n=14 vs placebo n=16; 30 days; non-significant; cited from earlier work
# OSA patients [9] = conditions: zopiclone 7.5 mg, 1 night, n=12; cited from earlier work
# [10] = protriptyline 20 mg, 4 weeks, 5 obese men with severe OSA (Brownell)
# [11] = seven patients with a low arousal threshold (Eckert)
# [12] = zopiclone 7.5 mg, 21 healthy individuals and OSA patients
structure (smiles),measurement,setting,value
CNCC[C@@H](Oc1ccccc1C)c1ccccc1 [atomoxetine],success in reducing OSA severity / the AHI,patients with OSA,modest success; also recorded: without success
same,share of the improvement in ventilation during sleep accounted for,OSA patients [1]; analysis of ventilatory parameters during all night,at least 70%
same,NREM (atomoxetine) and REM (oxybutynin) specific AHI,OSA patients [1],did not respectively improve
same,effect on ventilation during sleep,OSA patients [1],responsible for most of the ventilatory improvement
same,oxygen saturation / oxygen levels compared to placebo,OSA patients [1],improved oxygen saturation
same,reduction in arousal threshold vs placebo,"OSA patients [1]; nine OSA patients, atomoxetine p=0.03, combination p>0.7",18%
same,"OSA severity (apnea hypopnea index, AHI)",OSA patients [1],did not improve OSA severity
same,"OSA severity (apnea hypopnea index, AHI)",OSA patients [1]; listed as Atomoxetine,did not systematically reduce OSA severity
same,AHI,patients with mild OSA,did not improve
same,daytime sleepiness,patients with mild OSA,significantly improve
CNCCCN1c2ccccc2CCc2ccccc21 [desipramine],success in reducing OSA severity / the AHI,patients with OSA,modest success; also recorded: without success
same,airway collapsibility compared to placebo,"[2]; 1 night, 14 OSA patients",less collapsible airway
same,effect on OSA severity as a group,"[2]; 1 night, 14 patients",not significant
same,genioglossus activity during sleep,[2]; normal controls,increased genioglossus activity
same,upper airway collapsibility during sleep,[2]; normal controls,reduced upper airway collapsibility
NCC1(CC(=O)O)CCCCC1 [gabapentin],increase of SWS (slow wave sleep),[3],20-60%
CCN(CC)CC#CCOC(=O)C(O)(c1ccccc1)C1CCCCC1 (stereo not drawn) [oxybutynin],NREM (atomoxetine) and REM (oxybutynin) specific AHI,OSA patients [1],did not respectively improve
same,effect on ventilation during sleep,OSA patients [1],minor effect on ventilation
same,oxygen saturation / oxygen levels compared to placebo,OSA patients [1],did not improve oxygen levels
same,"OSA severity (apnea hypopnea index, AHI)",OSA patients [1],did not systematically reduce OSA severity
CC(C)COc1ccc(CNC(=O)N(Cc2ccc(F)cc2)C2CCN(C)CC2)cc1 [pimavanserin],increase of respiratory arousal threshold ascribed to pimavanserin,OSA patients [4],~50%
CNCCCC1c2ccccc2C=Cc2ccccc21 [protriptyline],success in reducing OSA severity / the AHI,patients with OSA; listed as Protriptyline,without success
same,success in reducing OSA severity / the AHI,patients with OSA,modest success
same,reduction in AHI from baseline,"OSA patients [5]; open label 4-week crossover trial, 9 patients (Hanzel)",42%
same,AHI during NREM sleep,OSA patients [5]; [10],no change
same,oxygen saturation and daytime sleepiness,OSA patients [5]; [10],improvements
same,NREM AHI as a group,"OSA patients [5]; protriptyline 20 mg, 14 days, 10 moderate-to-severe OSA patients (Whyte)",did not change
Cc1ccsc1C(=CCCN1CCC[C@@H](C(=O)O)C1)c1sccc1C [tiagabine],AHI or oxygen saturation during sleep,OSA subjects,without worsening
same,increase in EEG slow wave activity,OSA subjects,16%
O=c1n(CCCN2CCN(c3cccc(Cl)c3)CC2)nc2ccccn12 [trazodone],AHI compared to placebo,OSA patients [6]; [11],did not affect
same,improvement of arousal threshold,OSA patients [6]; [11],30%
same,arousal threshold in response to hypercapnia,"OSA patients [6]; trazodone 100 mg before bedtime, eight OSA patients (Heinzer)",increased
same,reduction of AHI,"OSA patients [6]; trazodone 100 mg, 15 unselected OSA patients (Smales)",26%
Cc1ccc(-c2nc3ccc(C)cn3c2CC(=O)N(C)C)cc1 [zolpidem],increase in arousal threshold compared to placebo,"[7]; 21 subjects with and without OSA, zolpidem 10 mg",~30% and 25%
same,increase in median genioglossus muscle responsiveness compared to placebo,"[7]; 21 subjects, p=0.03",3 fold
same,genioglossus response to pharyngeal negative pressure compared to placebo,"[7]; zolpidem 10 mg, 21 individuals",increased
CN1CCN(C(=O)OC2c3nccnc3C(=O)N2c2ccc(Cl)cn2)CC1 (stereo not drawn) [zopiclone],AHI vs placebo,[7]; [12],did not change
same,arousal threshold vs placebo,[7]; [12],significantly increased
same,change in AHI from baseline,OSA patients [8],−25%
same,change in AHI from placebo,OSA patients [8],−15%
same,AHI compared to placebo,OSA patients [9],did not significantly change
same,increase in arousal threshold,OSA patients [9],20%
